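All cell lines were grown in 96-well plates and treated with compound for 48 hours. GI50 is the concentration that inhibits growth by half. TGI: total growth inhibition.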
How the values were obtained:
Assay in all cases: growth of human tumour cells (NCI), 48 h
786-0 renal = tested on: 786-0 renal
A498 renal = tested on: A498 renal
A549 NSCLC = tested on: A549 NSCLC
ACHN renal = tested on: ACHN renal
BT-549 breast = tested on: BT-549 breast
CAKI-1 renal = tested on: CAKI-1 renal
CCRF-CEM leukemia = tested on: CCRF-CEM leukemia
COLO 205 colon = tested on: COLO 205 colon
DU-145 prostate = tested on: DU-145 prostate
EKVX NSCLC = tested on: EKVX NSCLC
HCC-2998 colon = tested on: HCC-2998 colon
HCT-116 colon = tested on: HCT-116 colon
HCT-15 colon = tested on: HCT-15 colon
HL-60(TB) leukemia = tested on: HL-60(TB) leukemia
HOP-62 NSCLC = tested on: HOP-62 NSCLC
HOP-92 NSCLC = tested on: HOP-92 NSCLC
HS 578T breast = tested on: HS 578T breast
HT29 colon = tested on: HT29 colon
IGROV1 ovarian = tested on: IGROV1 ovarian
K-562 leukemia = tested on: K-562 leukemia
KM12 colon = tested on: KM12 colon
LOX IMVI melanoma = tested on: LOX IMVI melanoma
M14 melanoma = tested on: M14 melanoma
MALME-3M melanoma = tested on: MALME-3M melanoma
MCF7 breast = tested on: MCF7 breast
MDA-MB-231 breast = tested on: MDA-MB-231 breast
MDA-MB-435 = tested on: MDA-MB-435
MOLT-4 leukemia = tested on: MOLT-4 leukemia
NCI-H226 lung = tested on: NCI-H226 lung
NCI-H23 lung = tested on: NCI-H23 lung
NCI-H460 lung = tested on: NCI-H460 lung
NCI-H522 lung = tested on: NCI-H522 lung
NCI/ADR-RES ovarian = tested on: NCI/ADR-RES ovarian
OVCAR-3 ovarian = tested on: OVCAR-3 ovarian
OVCAR-4 ovarian = tested on: OVCAR-4 ovarian
OVCAR-5 ovarian = tested on: OVCAR-5 ovarian
OVCAR-8 ovarian = tested on: OVCAR-8 ovarian
PC-3 prostate = tested on: PC-3 prostate
RPMI-8226 leukemia = tested on: RPMI-8226 leukemia
RXF 393 renal = tested on: RXF 393 renal
SF-268 CNS = tested on: SF-268 CNS
SF-295 CNS = tested on: SF-295 CNS
SF-539 CNS = tested on: SF-539 CNS
SK-MEL-2 melanoma = tested on: SK-MEL-2 melanoma
SK-MEL-28 melanoma = tested on: SK-MEL-28 melanoma
SK-MEL-5 melanoma = tested on: SK-MEL-5 melanoma
SK-OV-3 ovarian = tested on: SK-OV-3 ovarian
SN12C renal = tested on: SN12C renal
SNB-19 CNS = tested on: SNB-19 CNS
SNB-75 CNS = tested on: SNB-75 CNS
SR leukemia = tested on: SR leukemia
SW-620 colon = tested on: SW-620 colon
T-47D breast = tested on: T-47D breast
TK-10 renal = tested on: TK-10 renal
U251 CNS = tested on: U251 CNS
UACC-257 melanoma = tested on: UACC-257 melanoma
UACC-62 melanoma = tested on: UACC-62 melanoma
UO-31 renal = tested on: UO-31 renal

`COc1ccc([C@@H]2[C@@H](O)C(=O)N2c2cc(OC)c(OC)c(OC)c2)cc1` gave a GI50 (786-0 renal) of 91.6 nM, a TGI (786-0 renal) greater than 100000 nM and a GI50 (A498 renal) of 11300 nM. It also gave a TGI (A498 renal) greater than 88700 nM, a GI50 (A549 NSCLC) of 92.4 nM and a TGI (A549 NSCLC) greater than 100000 nM. The GI50 (ACHN renal) was 72.3 nM, the TGI (ACHN renal) was greater than 100000 nM and the GI50 (BT-549 breast) was 94.1 nM. For the same compound, the TGI (BT-549 breast) was 2430 nM, the GI50 (CAKI-1 renal) was 48.6 nM and the TGI (CAKI-1 renal) was greater than 33800 nM. The GI50 (CCRF-CEM leukemia) was 41.3 nM, the GI50 (COLO 205 colon) was 69.6 nM and the TGI (COLO 205 colon) was 173 nM. It also gave a GI50 (DU-145 prostate) of 76.1 nM, a TGI (DU-145 prostate) greater than 100000 nM and a GI50 (EKVX NSCLC) of 79.9 nM. For the same compound, the TGI (EKVX NSCLC) was greater than 100000 nM, the GI50 (HCC-2998 colon) was 98.2 nM and the TGI (HCC-2998 colon) was 10000 nM. The GI50 (HCT-116 colon) was 38.6 nM, the TGI (HCT-116 colon) was greater than 100000 nM and the GI50 (HCT-15 colon) was 72.7 nM. For the same compound, the TGI (HCT-15 colon) was greater than 100000 nM, the GI50 (HL-60(TB) leukemia) was 30.9 nM and the TGI (HL-60(TB) leukemia) was 126 nM. For the same compound, the GI50 (HOP-62 NSCLC) was 75.8 nM, the TGI (HOP-62 NSCLC) was greater than 100000 nM and the GI50 (HOP-92 NSCLC) was greater than 44600 nM. It also gave a TGI (HOP-92 NSCLC) greater than 100000 nM, a GI50 (HS 578T breast) of 41 nM and a TGI (HS 578T breast) greater than 100000 nM. For the same compound, the GI50 (HT29 colon) was 32.9 nM, the TGI (HT29 colon) was 175 nM and the GI50 (IGROV1 ovarian) was 57.7 nM. It also gave a TGI (IGROV1 ovarian) greater than 100000 nM, a GI50 (K-562 leukemia) of 33.9 nM and a TGI (K-562 leukemia) greater than 100000 nM. For the same compound, the GI50 (KM12 colon) was 41.3 nM, the TGI (KM12 colon) was greater than 100000 nM and the GI50 (LOX IMVI melanoma) was 47.3 nM. It also gave a TGI (LOX IMVI melanoma) greater than 100000 nM, a GI50 (M14 melanoma) of 42.3 nM and a TGI (M14 melanoma) greater than 100000 nM. The GI50 (MALME-3M melanoma) was 105 nM, the TGI (MALME-3M melanoma) was greater than 100000 nM and the GI50 (MCF7 breast) was 35.1 nM. It also gave a TGI (MCF7 breast) greater than 100000 nM, a GI50 (MDA-MB-231 breast) of 55.8 nM and a TGI (MDA-MB-231 breast) greater than 100000 nM. The GI50 (MDA-MB-435) was 28.1 nM, the TGI (MDA-MB-435) was 83.7 nM and the GI50 (MOLT-4 leukemia) was 101 nM. It also gave a TGI (MOLT-4 leukemia) greater than 100000 nM, a GI50 (NCI-H226 lung) of 525 nM and a TGI (NCI-H226 lung) greater than 100000 nM. It also gave a GI50 (NCI-H23 lung) of 63 nM, a TGI (NCI-H23 lung) greater than 100000 nM and a GI50 (NCI-H460 lung) of 59.3 nM. For the same compound, the TGI (NCI-H460 lung) was greater than 100000 nM, the GI50 (NCI-H522 lung) was 24.8 nM and the TGI (NCI-H522 lung) was 76.7 nM. For the same compound, the GI50 (NCI/ADR-RES ovarian) was 72.5 nM, the TGI (NCI/ADR-RES ovarian) was greater than 100000 nM and the GI50 (OVCAR-3 ovarian) was 34.5 nM. For the same compound, the TGI (OVCAR-3 ovarian) was 327 nM, the GI50 (OVCAR-4 ovarian) was 5860 nM and the TGI (OVCAR-4 ovarian) was greater than 100000 nM. The GI50 (OVCAR-5 ovarian) was 61.3 nM, the TGI (OVCAR-5 ovarian) was greater than 100000 nM and the GI50 (OVCAR-8 ovarian) was 37.6 nM. It also gave a TGI (OVCAR-8 ovarian) greater than 100000 nM, a GI50 (PC-3 prostate) of 85.6 nM and a TGI (PC-3 prostate) greater than 100000 nM. It also gave a GI50 (RPMI-8226 leukemia) of 44.8 nM, a TGI (RPMI-8226 leukemia) of 5610 nM and a GI50 (RXF 393 renal) of 26 nM. For the same compound, the TGI (RXF 393 renal) was greater than 100000 nM, the GI50 (SF-268 CNS) was 214 nM and the TGI (SF-268 CNS) was greater than 100000 nM. For the same compound, the GI50 (SF-295 CNS) was 37.8 nM, the TGI (SF-295 CNS) was greater than 100000 nM and the GI50 (SF-539 CNS) was 30.5 nM. The TGI (SF-539 CNS) was greater than 100000 nM, the GI50 (SK-MEL-2 melanoma) was 135 nM and the TGI (SK-MEL-2 melanoma) was greater than 100000 nM. The TGI (SK-MEL-28 melanoma) was greater than 100000 nM, the GI50 (SK-MEL-5 melanoma) was 45.2 nM and the TGI (SK-MEL-5 melanoma) was 232 nM. For the same compound, the GI50 (SK-OV-3 ovarian) was 147 nM, the TGI (SK-OV-3 ovarian) was greater than 57100 nM and the GI50 (SN12C renal) was 124 nM. It also gave a TGI (SN12C renal) greater than 100000 nM, a GI50 (SNB-19 CNS) of 120 nM and a TGI (SNB-19 CNS) greater than 100000 nM. The GI50 (SNB-75 CNS) was 46.5 nM, the TGI (SNB-75 CNS) was greater than 100000 nM and the GI50 (SR leukemia) was 34.3 nM. It also gave a TGI (SR leukemia) greater than 100000 nM, a GI50 (SW-620 colon) of 50.4 nM and a TGI (SW-620 colon) greater than 100000 nM. It also gave a GI50 (T-47D breast) of 19000 nM, a TGI (T-47D breast) greater than 100000 nM and a GI50 (TK-10 renal) of 32900 nM. The TGI (TK-10 renal) was greater than 100000 nM, the GI50 (U251 CNS) was 40.4 nM and the TGI (U251 CNS) was greater than 100000 nM. The GI50 (UACC-257 melanoma) was 5350 nM, the TGI (UACC-257 melanoma) was greater than 100000 nM and the GI50 (UACC-62 melanoma) was 41.7 nM. It also gave a TGI (UACC-62 melanoma) greater than 100000 nM, a GI50 (UO-31 renal) of 65.9 nM and a TGI (UO-31 renal) greater than 100000 nM.

From PubChem BioAssay (NCI)
